Measurements: patent US20240319167A1, “CELL INFORMATION ACQUISITION METHOD, AND PROGRAM” (CANON KABUSHIKI KAISHA, priority 2023, published 2024)

Tests used:
COR-L23 cells = assay: Autofluorescence luminance ratio (G component/B component) after adding metabolism changing reagent; assay type: cell-based, human; details: antimycin A 1 μM where added, incubated an hour after D-glucose removal, FIG. 3
Experimental: (§1) Human lung cancer cells NCI-H322 (KAC Co., Ltd.) were cultured in a culture medium 103 for cell culture (KAC Co., Ltd.). Human lung cancer cells COR-L23 (KAC Co., Ltd.) were cultured in a culture medium 103 for cell culture (KAC Co., Ltd.). A cell culture vessel was a 35 mm glass bottom dish (IWAKI) for any case. […] The area of a nucleus region was acquired and labelled. […] Average value of G component/Average value of B component was calculated cell by cell and plotted as a box-and-whisker plot (FIG. 3). […] NCI-H322 cells were cultured in a 35 mm glass bottom dish, and COR-L23 cells were cultured in a 35 mm glass bottom dish. […] As negative control, only removal of D-glucose was performed for both NCI-H322 cells and COR-L23 cells to create samples not added with a metabolism changing reagent. An autofluorescence image of each of the samples was captured. Subsequently, nuclear staining and mitochondria staining were performed to stain nuclei and mitochondria, and similarly stained images were captured with an image capturing apparatus.

NCI-H322 cells = assay: as above; assay type: cell-based, human; details: antimycin A 1 μM where added, incubated an hour after D-glucose removal, FIG. 3
Experimental: as §1

`O=C[C@H](O)[C@@H](O)[C@H](O)[C@H](O)CO` [D-glucose] was tested, and the “G component/B component of autofluorescence (365 nm excitation/430 nm long pass filter) versus negative control” value (COR-L23 cells) was “no significant difference” and the “G component/B component of autofluorescence (365 nm excitation/430 nm long pass filter) versus negative control” value (NCI-H322 cells) was “no significant difference”.
